Here are results for three compounds from US20040071747A1, “Cosmetics” (priority 2001, published 2004).

The nature of the data set: Solubility in water or squalane by visual observation. Set-up: key: ∘: Completely dissolved; x: Separated or precipitated without dissolution. The format is physicochemical. Conditions: 25° C. On the procedure:
Solubilityies of 1% by weight of components (1) to (5), and those of 0.01% by weight of components (6) and (7) were examined by visual observation of the dissolving states of the components mixed at 25° C. with water or squalane.

Take `CCN(Cc1cccc(S(=O)(=O)[O-])c1)c1ccc(C(=C2C=CC(=[N+](CC)Cc3cccc(S(=O)(=O)[O-])c3)C=C2)c2ccccc2S(=O)(=O)[O-])cc1.[Na+].[Na+]` [Blue No.1]: for the setting “0.01% by weight”, the “Solubility in Squalane” value is “x” and the “Solubility in Water” value is on record as “∘”.

For `CC1(C)[C@@H](O[C@H]2O[C@H](C(=O)[O-])[C@@H](O)[C@H](O)[C@H]2O[C@@H]2O[C@H](C(=O)[O-])[C@@H](O)[C@H](O)[C@H]2O)CC[C@]2(C)[C@H]3C(=O)C=C4[C@@H]5C[C@@](C)(C(=O)O)CC[C@]5(C)CC[C@@]4(C)[C@]3(C)CC[C@@H]12.[K+].[K+]` [Dipotassium Glycyrrhizinate], where the note is “1% by weight”, the “Solubility in Squalane” value was “x” and the “Solubility in Water” value was “∘”.

In the case of `Cc1ccc(Nc2ccc(O)c3c2C(=O)c2ccccc2C3=O)c(S(=O)(=O)[O-])c1.[Na+]` [Purple No.401], under “0.01% by weight”, the “Solubility in Squalane” value is on record as “x” and the “Solubility in Water” value was “∘”.
